Biological target: T1, LigA (Deinococcus radiodurans, UniProt Q9RSQ5)
T1 construct: full-length, N-terminal hexahistidine tag (pRSETb, kept), E. coli BL21(DE3)
Assay: adenylyltransferase assay, SDS-PAGE autoradiography
Assay type: biochemical
Details: 0.1 μM [32P]-NAD+, 1 mM MnCl2, pH 6.8, 30 °C; covalent AMP adduct; labelled compound

For `NC(=O)c1ccc[n+]([C@@H]2O[C@H](COP(=O)(O)OP(=O)(O)OC[C@H]3O[C@@H](n4cnc5c(N)ncnc54)[C@H](O)[C@@H]3O)[C@@H](O)[C@H]2O)c1` [NAD^+], the “adenylyltransferase assay, SDS-PAGE autoradiography” value was “in an adenylyltransferase activity assay LigA wt formed an AMP-ligase complex”.
